Experimental findings from paper PMC6495113, “Sesquiterpenoids and 2-(2-phenylethyl)chromones respectively acting as α-glucosidase and tyrosinase inhibitors from agarwood of an Aquilaria plant” (Journal of Enzyme Inhibition and Medicinal Chemistry, 2019) are described below.

Assay [1] concerns the target T1, α-glucosidase (Saccharomyces cerevisiae, UniProt P53341). Description: α-Glucosidase inhibitory assay (p-NPG substrate). Particulars: for inhibition at 750 µM: read-out: α-glucosidase inhibitory activity 750 μM (%).
Method: The α-glucosidase (G5003, Sigma-Aldrich) was obtained from Saccharomyces cerevisiae and the enzyme inhibitory assay was performed using formerly described method[24] with some modifications. […] The percentage inhibition was calculated using the following equation: % inhibition=[1–(ODcompound–ODblank)/(ODcontrol–ODblank)]×100
Assay [2] addresses T2, tyrosinase (Agaricus bisporus, UniProt C7FF04). Description: Tyrosinase inhibitory assay (L-tyrosine substrate). The note with it: read-out: tyrosinase inhibitory activity 100 μM (%).
Method: After 5 min pre-incubation of the mixture at 37 °C, 50 µL of 2 mM L-tyrosine in buffer were added and incubated for additional 20 min at 37 °C. The control wells contained DMSO instead of compound, and the blank wells were added with buffer in place of L-tyrosine. […] The percentage inhibition was calculated using the formula as below: % inhibition=[1–(ODcompound–ODblank)/(ODcontrol–ODblank)]×100
Assay [3] deals with T1, α-glucosidase. Description: Kinetic analysis of α-glucosidase inhibition (Lineweaver-Burk, secondary plot). Type of assay: biochemical. As for the experimental part:
The α-glucosidase (G5003, Sigma-Aldrich) was obtained from Saccharomyces cerevisiae and the enzyme inhibitory assay was performed using formerly described method[24] with some modifications. […]. The OD values were measured at 405 nm with microplate reader. Acarbose was used as reference compound. The percentage inhibition was calculated using the following equation: % inhibition=[1–(ODcompound–ODblank)/(ODcontrol–ODblank)]×100
(§1) The data were expressed as double-reciprocal Lineweaver − Burk plot and the inhibition constants (KI and KIS) were obtained from secondary plots of slope and y intercept of lines from Lineweaver-Burk plot against inhibitor[25].

In assay [4] the target is T2, tyrosinase. As to the kind of experiment: Kinetic analysis of tyrosinase inhibition (Lineweaver-Burk, secondary re-plots). Type of assay: biochemical, mushroom. As to the method: . Briefly, 130 µL of tyrosinase (50 U/mL) solvated in 50 mM phosphate buffer (pH: 6.8) were mixed with 20 µL of 2-fold serial dilutions (from 1 mM to 0.03125 mM) of compounds in DMSO, and transferred into a 96-well plate. After 5 min pre-incubation of the mixture at 37 °C, 50 µL of 2 mM L-tyrosine in buffer were added and incubated for additional 20 min at 37 °C. The control wells contained DMSO instead of compound, and the blank wells were added with buffer in place of L-tyrosine. Kojic acid was used as a positive control. The absorbance was measured at 495 nm using microplate reader. The percentage inhibition was calculated using the formula as below: % inhibition=[1–(ODcompound–ODblank)/(ODcontrol–ODblank)]×100
as §1

T2 sequence (C7FF04 1-392): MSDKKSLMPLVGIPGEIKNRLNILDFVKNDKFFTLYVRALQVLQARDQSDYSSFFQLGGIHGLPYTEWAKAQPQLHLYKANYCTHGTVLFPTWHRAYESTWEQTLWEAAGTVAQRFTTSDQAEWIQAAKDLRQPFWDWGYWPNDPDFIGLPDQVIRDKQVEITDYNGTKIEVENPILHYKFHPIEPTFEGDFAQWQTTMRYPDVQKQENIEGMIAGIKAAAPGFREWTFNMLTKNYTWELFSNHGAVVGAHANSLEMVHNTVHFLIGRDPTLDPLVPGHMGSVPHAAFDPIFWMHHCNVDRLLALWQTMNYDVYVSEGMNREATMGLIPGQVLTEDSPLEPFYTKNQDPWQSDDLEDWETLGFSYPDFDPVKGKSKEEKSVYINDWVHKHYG
T1 sequence (P53341 whole entry): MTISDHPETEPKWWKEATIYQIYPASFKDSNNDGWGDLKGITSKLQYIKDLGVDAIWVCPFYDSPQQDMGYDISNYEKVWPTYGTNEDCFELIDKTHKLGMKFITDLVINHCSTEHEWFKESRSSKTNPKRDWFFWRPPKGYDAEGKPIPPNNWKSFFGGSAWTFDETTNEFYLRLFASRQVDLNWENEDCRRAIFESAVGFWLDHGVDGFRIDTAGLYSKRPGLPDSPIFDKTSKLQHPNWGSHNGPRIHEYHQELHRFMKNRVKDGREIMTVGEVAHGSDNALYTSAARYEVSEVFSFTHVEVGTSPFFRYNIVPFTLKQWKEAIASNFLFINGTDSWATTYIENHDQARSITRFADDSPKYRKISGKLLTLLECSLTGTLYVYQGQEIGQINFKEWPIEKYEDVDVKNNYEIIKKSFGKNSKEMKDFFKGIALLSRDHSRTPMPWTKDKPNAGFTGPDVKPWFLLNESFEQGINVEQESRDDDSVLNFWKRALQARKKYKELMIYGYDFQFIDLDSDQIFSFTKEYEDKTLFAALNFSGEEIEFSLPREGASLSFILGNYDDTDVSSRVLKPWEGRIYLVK

As for `C=C1C2CCC3(C(CO)CCC3C1(C)C)C2O` (centres unmarked) [Compound 1, Agarozizanol A], the inhibition at 750 µM in assay [1] is 37.4 ± 1.4%. Also, the inhibition at 100 µM in assay [2] is under 30%.

In the case of `CC1CCC2C(C)(C)C(CO)C3(O)CCC12C3` (centres unmarked) [Compound 2, Agarozizanol B], in assay [1], the inhibition at 750 µM amounted to 42 ± 2.7%. In assay [2], the inhibition at 100 µM is under 30%.

In the case of `CC1CCC2C13CCC(C3O)C(C)(O)C2(C)C` (centres unmarked) [Compound 3, Agarozizanol C], the inhibition at 750 µM in assay [1] is under 30%. In assay [2], the inhibition at 100 µM was under 30%.

Consider `CC1CCC2C13CCC(C3)C(O)(CO)C2(C)C` (centres unmarked) [Compound 4, Agarozizanol D], for which the inhibition at 750 µM in assay [1] is 49.9 ± 1.8%. In addition, in assay [2], the inhibition at 100 µM was under 30%.

In the case of `CC1=C2CCC(C)C23CCC(C3)C1(C)CO` (centres unmarked) [Compound 5, Agarozizanol E], the “type of inhibition of α-glucosidase” value in assay [3] was “uncompetitive inhibitors”. Further, the inhibition at 750 µM in assay [1] turned out to be 93.4 ± 3.1%. In assay [2], the inhibition at 100 µM is under 30%.

On to `CC1=C2C(O)CC(CO)C23CCC(C3)C1(C)C` (centres unmarked) [Compound 6, Agarozizanol F], for which, in assay [1], the inhibition at 750 µM was under 30%. Moreover, the inhibition at 100 µM in assay [2] was under 30%.

Turning to `CC1CCC2C13CCC(C3)C(C)(O)C2(C)C` (centres unmarked) [Compound 7, Jinkohol I], the inhibition at 750 µM in assay [1] was 86.9 ± 0.4%. Also, the inhibition at 100 µM in assay [2] was under 30%.

Consider `CC1CCC2C(C)(C)C(CO)C3CCC12C3` (centres unmarked) [Compound 8, Jinkohol II], for which the inhibition at 750 µM in assay [1] is 77.3 ± 1%. For the same compound, the inhibition at 100 µM in assay [2] was under 30%.

`CC1CCC2C(C)(C)C(C(=O)O)C3CCC12C3` (centres unmarked) [Compound 9, Jinkoholic acid]: the inhibition at 750 µM in assay [1] worked out at 48.9 ± 1.1%. Further, in assay [2], the inhibition at 100 µM was under 30%.

`CC1=C2CCC(CO)C23CCC(C3)C1(C)C` (centres unmarked) [Compound 10, isokhusenol]: in assay [1], the inhibition at 750 µM came to 92.1 ± 3.4%. In assay [2], the inhibition at 100 µM was under 30%.

Regarding `COc1ccc(CCc2cc(=O)c3cc(OC)c(O)cc3o2)cc1O` [Compound 12, 6-methoxy-7-hydroxy-2-[2-(3-hydroxy-4-methoxyphenyl)ethyl]chromone], the inhibition at 750 µM in assay [1] was under 30%. Also, in assay [2], the inhibition at 100 µM is under 30%.

On to `COc1ccc(CCc2cc(=O)c3cc(O)c(OC)cc3o2)cc1O` [Compound 13, 6-hydroxy-7-methoxy-2-[2-(3-hydroxy-4-methoxyphenyl)ethyl]chromone], for which the inhibition at 750 µM in assay [1] is under 30%. In assay [2], the inhibition at 100 µM was found to be 53.4 ± 0.7%.

Consider `COc1ccc(CCc2cc(=O)c3cc(O)cc(O)c3o2)cc1` [Compound 14, 6,8-dihydroxy-2-[2-(4-methoxyphenyl)ethyl]chromone], for which, in assay [4] (Lineweaver-Burk plot), the “type of inhibition of tyrosinase” value is “mixed type inhibitors”. Moreover, in assay [4] (secondary re-plot of y intercept vs. inhibitor), the “inhibition constant KIS, binding with enzyme-substrate complex (tyrosinase)” value is reported as 72.8 µM. Moreover, the inhibition at 750 µM in assay [1] was under 30%. Besides, the inhibition at 100 µM in assay [2] turned out to be 65 ± 1.8%.

For `O=c1cc(CCc2ccccc2)oc2c1C(O)C(O)C(O)C2Cl` (centres unmarked) [Compound 15, 8-chloro-2–(2-phenylethyl)-5,6,7-trihydroxy-5,6,7,8-tetrahydrochromone], in assay [1], the inhibition at 750 µM was under 30%. In addition, the inhibition at 100 µM in assay [2] amounted to 34.8 ± 1.4%.

Consider `COc1ccc(CCc2cc(=O)c3c(o2)C(Cl)C(O)C(O)C3O)cc1` (centres unmarked) [Compound 16, 8-chloro-2–(2-(4-methoxyphenyl)ethyl)-5,6,7-trihydroxy-5,6,7,8-tetrahydrochromone], for which the inhibition at 750 µM in assay [1] was under 30%. Further, the inhibition at 100 µM in assay [2] was under 30%.

For the compound `C[C@H]1O[C@H](O[C@H]2[C@H](O)[C@@H](O)[C@@H](O[C@H]3[C@H](O)[C@@H](O)C(O)O[C@@H]3CO)O[C@@H]2CO)[C@H](O)[C@@H](O)[C@@H]1N[C@H]1C=C(CO)[C@@H](O)[C@H](O)[C@H]1O` (some centres unmarked) [acarbose, reference compound], the “α-glucosidase inhibitory activity 750 μM (%)” value in assay [1] (750 μM, means ± SD, three individual experiments) was 50.7 ± 1.2%. Moreover, in assay [1] (concentration of 50 µg/mL), the α-glucosidase inhibition rate is given as 62.06 ± 4.77%.
